Laboratory results reported in patent US20120053197A1, “TRICYCLIC PYRIDINE DERIVATIVES, MEDICAMENTS CONTAINING SUCH COMPOUNDS, THEIR USE AND PROCESS FOR THEIR PREPARATION” (BOEHRINGER INGELHEIM INTERNATIONAL GMBH, priority 2010, published 2012).
pIC50: −log10 of the molar value.

Target: T1, recombinant human CETP (Homo sapiens, UniProt P11597)
T1 construct: made in house; host or cells: CHO cells (protein secreted into conditioned medium)
T1 sequence (P11597 18-493): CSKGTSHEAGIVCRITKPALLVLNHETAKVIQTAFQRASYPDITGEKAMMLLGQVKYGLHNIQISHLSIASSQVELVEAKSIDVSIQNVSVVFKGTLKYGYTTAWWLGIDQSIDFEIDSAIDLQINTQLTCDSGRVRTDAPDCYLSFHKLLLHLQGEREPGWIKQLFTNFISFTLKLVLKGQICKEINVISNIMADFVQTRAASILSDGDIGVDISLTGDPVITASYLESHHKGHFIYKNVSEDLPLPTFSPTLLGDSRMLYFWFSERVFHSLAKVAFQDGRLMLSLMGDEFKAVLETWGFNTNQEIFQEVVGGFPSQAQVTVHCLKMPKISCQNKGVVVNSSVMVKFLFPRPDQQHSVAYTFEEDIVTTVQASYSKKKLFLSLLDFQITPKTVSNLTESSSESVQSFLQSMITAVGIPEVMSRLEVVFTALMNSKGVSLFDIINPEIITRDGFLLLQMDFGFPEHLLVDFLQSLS
Assay: CETP in vitro fluorometric assay (Roar Biomedical), cholesterol ester transfer from HDL to LDL
Assay type: biochemical
Details: recombinant human CETP from CHO cells; 3 hours at 37° C.; fluorescence ex 485 nm / em 535 nm; compound concentrations between 1 nM and 30 μM; read-out: IC50 values for inhibition of CETP
Method: CETP inhibitory activity of compounds of the present invention can be determined in a fluorometric assay puchased from Roar Biomedical, Inc. (New York, N.Y., USA). […] Recombinant human CETP was partially purified from medium conditioned by CETP expressing CHO cells. In a 384 well format 2.5 μl of compound solution in DMSO was combined with 2 μl of donor solution, 2 μl of acceptor solution and 0.8 μl of recombinant human CETP solution in a total volume of 100 μl with assay buffer and incubated for 3 hours at 37° C. The fluorescence intensity was measured at excitation wavelength of 485 nm and emission wavelength of 535 nm. IC50 values are calculated from dose effect curves from compound concentrations between 1 nM and 30 μM.

| Compound | pIC50 |
| --- | --- |
| CC(C)c1nc2c(c3c1[C@@H](c1ccc(C(C)(C)O)cc1)OC31CCCC1)[C@@H](O)CC(C)(C)C2 [1(26), (3′R,9′S)-3′-(4-(2-hydroxypropan-2-yl)phenyl)-4′-isopropyl-7′,7′-dimethyl-6′,7′,8′,9′-tetrahydro-3′H-spiro[cyclopentane-1,1′-furo[3,4-c]quinolin]-9′-ol] | 6.06 |
| CC(C)Cc1ccc([C@H]2OC3(CCCC3)c3c2c(C(C)C)nc2c3[C@@H](O)CC(C)(C)C2)cc1 [1(27), (3′R,9′S)-3′-(4-isobutylphenyl)-4′-isopropyl-7′,7′-dimethyl-6′,7′,8′,9′-tetrahydro-3′H-spiro[cyclopentane-1,1′-furo[3,4-c]quinolin]-9′-ol] | 6.52 |
| CC1(C)Cc2nc(C3CCC3)c3c(c2[C@@H](O)C1)C1(CCCC1)O[C@@H]3c1ccc(C(F)(F)F)cc1 [1(28), (3′R,9′S)-4′-cyclobutyl-7′,7′-dimethyl-3′-(4-(trifluoromethyl)phenyl)-6′,7′,8′,9′-tetrahydro-3′H-spiro[cyclopentane-1,1′-furo[3,4-c]quinolin]-9′-ol] | 7.29 |
| CC(C)c1ccc([C@H]2OC3(CCCC3)c3c2c(C2CCCC2)nc2c3[C@@H](O)CC(C)(C)C2)cc1 [1(29), (3′R,9′S)-4′-cyclopentyl-3′-(4-isopropylphenyl)-7′,7′-dimethyl-6′,7′,8′,9′-tetrahydro-3′H-spiro[cyclopentane-1,1′-furo[3,4-c]quinolin]-9′-ol] | 7.06 |
| CC(=O)O[C@H]1c2nc(C(C)C)c3c(c2[C@@H](O)CC1(C)C)C1(CCCC1)O[C@@H]3c1ccc(C(F)(F)F)cc1 [1(33), (3′R,6′R,9′S)-9′-hydroxy-4′-isopropyl-7′,7′-dimethyl-3′-(4-(trifluoromethyl)phenyl)-6′,7′,8′,9′-tetrahydro-3′H-spiro[cyclopentane-1,1′-furo[3,4-c]quinoline]-6′-yl acetate] | 6.64 |
| CCc1nc2c(c3c1[C@@H](c1ccc(C(F)(F)F)cc1)OC31CCCC1)[C@@H](O)CC(C)(C)C2 [1(37), (3′R,9′S)-4′-ethyl-7′,7′-dimethyl-3′-(4-(trifluoromethyl)phenyl)-6′,7′,8′,9′-tetrahydro-3′H-spiro[cyclopentane-1,1′-furo[3,4-c]quinolin]-9′-ol] | 6.38 |
| CC(C)c1nc2c(c3c1[C@@H](c1ccc(C4(C)CC4)cc1)OC31CCCC1)[C@@H](O)CC(C)(C)C2 [1(40), (3′R,9′S)-4′-isopropyl-7′,7′-dimethyl-3′-(4-(1-methylcyclopropyl)phenyl)-6′,7′,8′,9′-tetrahydro-3′H-spiro[cyclopentane-1,1′-furo[3,4-c]quinolin]-9′-ol] | 7.43 |
| CC(C)c1nc2c(c3c1[C@@H](c1ccc(C(C)(C)C)cc1)OC31CCOCC1)[C@@H](O)CC(C)(C)C2 [1(42), (3R,9S)-3-(4-tert-butylphenyl)-4-isopropyl-7,7-dimethyl-2′,3′,5′,6,6′,7,8,9-octahydro-3H-spiro[furo[3,4-c]quinoline-1,4′-pyran]-9-ol] | 7.60 |
| CC(C)c1nc2c(c3c1[C@@H](c1ccc(C4CC4)cc1)OC31CCCC1)[C@@H](O)CC(C)(C)C2 [1(45), (3′R,9′S)-3′-(4-cyclopropylphenyl)-4′-isopropyl-7′,7′-dimethyl-6′,7′,8′,9′-tetrahydro-3′H-spiro[cyclopentane-1,1′-furo[3,4-c]quinolin]-9′-ol] | 6.91 |
| CC(C)c1nc2c(c3c1[C@@H](c1ccc(C(F)(F)F)cc1)OC31CCCC1)[C@@H](O)CC(C)(C)C2 [Example 1, (3′R,9′S)-4′-isopropyl-7′,7′-dimethyl-3′-(4-(trifluoromethyl)phenyl)-6′,7′,8′,9′-tetrahydro-3′H-spiro[cyclopentane-1,1′-furo[3,4-c]quinolin]-9′-ol] | 7.27 |
| CC(C)c1nc2c(c3c1[C@@H](c1ccc(C(F)(F)F)cc1)OC31CCCC1)[C@@H](O)CC(C)(C)[C@H]2O [Example 3, (3′R,6′R,9′S)-4′-isopropyl-7′,7′-dimethyl-3′-(4-(trifluoromethyl)phenyl)-6′,7′,8′,9′-tetrahydro-3′H-spiro[cyclopentane-1,1′-furo[3,4-c]quinoline]-6′,9′-diol] | 7.70 |

Continued by rising pIC50, values first:

| pIC50 | Compound |
| --- | --- |
| 5.48 | CC(C)c1nc2c(c3c1[C@@H](c1cc(F)cc(F)c1)OC31CCCC1)[C@@H](O)CC(C)(C)C2 [1(38), (3′R,9′S)-3′-(3,5-difluorophenyl)-4′-isopropyl-7′,7′-dimethyl-6′,7′,8′,9′-tetrahydro-3′H-spiro[cyclopentane-1,1′-furo[3,4-c]quinolin]-9′-ol] |
| 5.97 | CC1(C)Cc2nc(C3CCCC3)c3c(c2[C@@H](O)C1)C1(CCCC1)O[C@@H]3c1cccc(C(C)(C)C)c1 [1(31), (3′R,9′S)-3′-(3-tert-butylphenyl)-4′-cyclopentyl-7′,7′-dimethyl-6′,7′,8′,9′-tetrahydro-3′H-spiro[cyclopentane-1,1′-furo[3,4-c]quinolin]-9′-ol] |
| 6.28 | CC(C)c1nc2c(c3c1[C@@H](c1cccc(C(F)(F)F)c1)OC31CCCC1)[C@@H](O)CC(C)(C)C2 [1(41), (3′R,9′S)-4′-isopropyl-7′,7′-dimethyl-3′-(3-(trifluoromethyl)phenyl)-6′,7′,8′,9′-tetrahydro-3′H-spiro[cyclopentane-1,1′-furo[3,4-c]quinolin]-9′-ol] |
| 6.40 | CC(C)c1nc2c(c3c1[C@@H](c1ccc(C(F)(F)F)cc1)OC31CCCC1)[C@@H](O)CC(C)(C)[C@@H]2O [3(1), (3′R,6′S,9′S)-4′-isopropyl-7′,7′-dimethyl-3′-(4-(trifluoromethyl)phenyl)-6′,7′,8′,9′-tetrahydro-3′H-spiro[cyclopentane-1,1′-furo[3,4-c]quinoline]-6′,9′-diol] |
| 6.86 | CC(=O)O[C@@H]1c2nc(C(C)C)c3c(c2[C@@H](O)CC1(C)C)C1(CCCC1)O[C@@H]3c1ccc(C(F)(F)F)cc1 [1(34), (3′R,6′S,9′S)-9′-hydroxy-4′-isopropyl-7′,7′-dimethyl-3′-(4-(trifluoromethyl)phenyl)-6′,7′,8′,9′-tetrahydro-3′H-spiro[cyclopentane-1,1′-furo[3,4-c]quinoline]-6′-yl acetate] |
| 7.13 | CC1(C)Cc2nc(C3CCOCC3)c3c(c2[C@@H](O)C1)C1(CCCC1)O[C@@H]3c1ccc(C(C)(C)C)cc1 [1(36), (3′R,9′S)-3′-(4-tert-butylphenyl)-7′,7′-dimethyl-4′-(tetrahydro-2H-pyran-4-yl)-6′,7′,8′,9′-tetrahydro-3′H-spiro[cyclopentane-1,1′-furo[3,4-c]quinolin]-9′-ol] |
| 7.16 | CC(C)c1nc2c(c3c1[C@@H](c1ccc(C4(C#N)CC4)cc1)OC31CCCC1)[C@@H](O)CC(C)(C)C2 [1(44), 1-(4-((3′R,9′S)-9′-hydroxy-4′-isopropyl-7′,7′-dimethyl-6′,7′,8′,9′-tetrahydro-3′H-spiro[cyclopentane-1,1′-furo[3,4-c]quinoline]-3′-yl)phenyl)cyclopropanecarbonitrile] |
| 7.21 | CC(C)c1nc2c(c3c1[C@@H](c1ccc(C(C)(F)F)cc1)OC31CCCC1)[C@@H](O)CC(C)(C)C2 [1(32), (3′R,9′S)-3′-(4-(1,1-difluoroethyl)phenyl)-4′-isopropyl-7′,7′-dimethyl-6′,7′,8′,9′-tetrahydro-3′H-spiro[cyclopentane-1,1′-furo[3,4-c]quinolin]-9′-ol] |
| 7.25 | CC1(C)Cc2nc(C3CCOCC3)c3c(c2[C@@H](O)C1)C1(CCOCC1)O[C@@H]3c1ccc(C(F)(F)F)cc1 [1(39), (3R,9S)-7,7-dimethyl-4-(tetrahydro-2H-pyran-4-yl)-3-(4-(trifluoromethyl)phenyl)-2′,3′,5′,6,6′,7,8,9-octahydro-3H-spiro[furo[3,4-c]quinoline-1,4′-pyran]-9-ol] |
| 7.28 | CC(C)c1ccc([C@H]2OC3(CCCC3)c3c2c(C(C)C)nc2c3[C@@H](O)CC3(CCC3)C2)cc1 [1(35), (3′R,9′S)-4′-isopropyl-7′,7′-(propan-1,3-diyl)-3′-(4-(isopropyl)phenyl)-6′,7′,8′,9′-tetrahydro-3′H-spiro[cyclopentane-1,1′-furo[3,4-c]quinolin]-9′-ol] |
| 7.66 | CC1(C)Cc2nc(C3CCOCC3)c3c(c2[C@@H](O)C1)C1(CCCC1)O[C@@H]3c1ccc(S(F)(F)(F)(F)F)cc1 [1(43), (3′R,9′S)-7′,7′-dimethyl-4′-(tetrahydro-2H-pyran-4-yl)-3′-(4-(pentafluorosulfanyl)phenyl)-6′,7′,8′,9′-tetrahydro-3′H-spiro[cyclopentane-1,1′-furo[3,4-c]quinolin]-9′-ol] |
| 7.74 | CC(C)c1nc2c(c3c1[C@@H](c1ccc(C(F)(F)F)cc1)OC31CCOCC1)[C@@H](O)CC(C)(C)C2 [1(30), (3R,9S)-4-isopropyl-7,7-dimethyl-3-(4-(trifluoromethyl)phenyl)-2′,3′,5′,6,6′,7,8,9-octahydro-3H-spiro[furo[3,4-c]quinoline-1,4′-pyran]-9-ol] |
